Test results from ChEMBL document CHEMBL3853312, “Blocking Blood Flow to Solid Tumors by Destabilizing Tubulin: An Approach to Targeting Tumor Growth” (J Med Chem, 2016).
Each block holds one molecule with its values, some of them ahead of it.

Experiments:
Type in all cases: ADME, organism-based
[1] = Drug excretion in iv dosed human urine assessed as unchanged compound administered as 30 mins infusion after 24 hrs by LC-MS/MS analysis; details: read-out: Drug excretion
[2] = Tmax in human at 250 mg, po qd regimen measured on day 7 post dose by LC-MS analysis; details: in vivo
[3] = Apparent half life in human at 11.5 to 42 mg/m'-2, iv dosed as 30 mins infusion by LC-MS/MS analysis; details: in vivo, read-out: t1/2(app)

dose excreted at 24 h [1]: < 1%
SMILES: COc1cc(C(=O)c2ccc(-c3csc(NC(=O)[C@@H](N)C(C)C)n3)cc2-n2cncn2)cc(OC)c1OC

Tmax [2]: 120 min
SMILES: COc1ccc(S(=O)(=O)Nc2cccnc2Nc2ccc(O)cc2)cc1 [ABT-751]

SMILES: COc1ccc(/C=C\c2cc(OC)c(OC)c(OC)c2)cc1NC(=O)[C@@H](N)CO [OMBRABULIN]
half-life [3]: 12 min
